# Test results from ChEMBL document CHEMBL5150003, “Why All the Fury over Furin?” (J Med Chem, 2022).
# Peptide text beside a SMILES is read from it. * marks the point of attachment. X1 = C[C@@H](O)[C@H](NN(CCCNC(N)N)CN*)C(N)=O; NH(4-amidinobenzyl) = N=C(N)c1ccc(CN*)cc1; PhAc = O=C(Cc1ccccc1)*; X5 = N=C(N)NC/C=C/CN*
# Columns and labels:
# [1] = target: T1, Furin (Homo sapiens, UniProt P09958); test: Inhibition of human furin using Pyr-RTKR-AMC as substrate preincubated for 30 mins followed by substrate addition and measured by fluorescence based assay
# T1 sequence (P09958 whole entry): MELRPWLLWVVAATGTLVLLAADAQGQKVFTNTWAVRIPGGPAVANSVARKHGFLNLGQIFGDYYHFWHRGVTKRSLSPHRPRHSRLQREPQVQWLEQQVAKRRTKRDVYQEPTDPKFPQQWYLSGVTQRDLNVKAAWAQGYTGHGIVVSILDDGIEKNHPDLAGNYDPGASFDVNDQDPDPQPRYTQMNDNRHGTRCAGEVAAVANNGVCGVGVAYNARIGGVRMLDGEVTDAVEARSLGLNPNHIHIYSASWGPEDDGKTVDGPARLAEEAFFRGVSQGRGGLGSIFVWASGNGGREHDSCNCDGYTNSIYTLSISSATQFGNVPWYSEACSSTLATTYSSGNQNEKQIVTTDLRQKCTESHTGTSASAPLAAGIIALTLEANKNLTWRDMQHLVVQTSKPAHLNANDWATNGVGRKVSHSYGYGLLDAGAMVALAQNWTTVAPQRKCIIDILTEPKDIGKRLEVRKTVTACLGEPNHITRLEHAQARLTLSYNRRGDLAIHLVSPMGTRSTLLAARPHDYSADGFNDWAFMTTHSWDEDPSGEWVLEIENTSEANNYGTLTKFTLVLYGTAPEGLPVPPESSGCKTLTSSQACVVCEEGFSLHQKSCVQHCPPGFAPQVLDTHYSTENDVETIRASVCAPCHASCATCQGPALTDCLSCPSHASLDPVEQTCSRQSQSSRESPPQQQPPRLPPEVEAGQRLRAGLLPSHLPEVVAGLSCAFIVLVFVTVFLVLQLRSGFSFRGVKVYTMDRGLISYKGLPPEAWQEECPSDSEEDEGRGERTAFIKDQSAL
# [2] = target: T1, Furin; test: Inhibition of human furin expressed in HEK293 cells using pGlu-Arg-Thr-LysArg-AMC as substrate and measured by fluorescence based assay
# [3] = tested on: Vero; test: Protective activity against Escherichia coli O157:H7 Shiga toxin-induced cytotoxicity in monkey Vero cells measured by LDH assay; format: functional, cell-based; details: Chlorocebus sabaeus
# [4] = target: T1, Furin; test: Inhibition of recombinant human furin using Phac-Arg-Val-Arg-Arg-AMC as substrate incubated for 30 mins and measured by microplate reader method
# [5] = target: T1, Furin; test: Inhibition of furin (unknown origin)
# [6] = Stability in mouse plasma assessed as compound remaining measured after 24 hrs; format: ADME, cell-free; details: read-out: Stability
# [7] = Stability in mouse plasma assessed as half-life; format: ADME, cell-free
# [8] = target: T1, Furin; test: Inhibition of recombinant human furin protease
# [9] = target: T1, Furin; test: Inhibition of soluble recombinant human furin using pyroGlu-Arg-Thr-Lys-Arg-AMC as substrate and measured by fluorescence assay
# [10] = target: T1, Furin; test: Inhibition of furin in human U2OS cells measured after 24 hrs by fluorescence assay; format: cell-based
# [11] = tested on: Mus musculus; test: Antifibrotic activity against bleomycin-induced mouse lung fibrosis model assessed as inhibition of TGF-beta secretion in lung at 10 mg/kg, ip administered twice daily; format: functional
# [12] = tested on: Mus musculus; test: Antifibrotic activity against bleomycin-induced mouse lung fibrosis model assessed as inhibition of hydroxyproline content in lung at 10 mg/kg, ip administered twice daily; format: functional
# [13] = Inhibition of porcine trypsin using Mes-DArg-Gly-Arg-AMC as substrate and measured by fluorescence assay; parameters: species or system Sus scrofa
# [14] = Dissociation constant, pKa of the compound; format: physicochemical
# [15] = tested on: Mus musculus; test: Antifibrotic activity against bleomycin-induced mouse lung fibrosis model assessed as inhibition of TGF-beta secretion in lung at 30 mg/kg, po administered once daily; format: functional
# [16] = tested on: Mus musculus; test: Antifibrotic activity against bleomycin-induced mouse lung fibrosis model assessed as inhibition of hydroxyproline content in lung at 30 mg/kg, po administered once daily; format: functional
compound,measurement,setting,value
CC(=O)N[C@@H](CCCNC(=N)N)C(=O)N[C@H](C(=O)N[C@@H](Cc1ccc(N=C(N)N)cc1)C(=O)NCc1ccc(C(=N)N)cc1F)C(C)C,Ki,[1],0.009 µM
CC(C)[C@H](NC(=O)[C@H](CCCNC(=N)N)NC(=O)Cc1ccc(CNC(=N)N)cc1)C(=O)N[C@@H](CCCNC(=N)N)C(=O)NCc1ccc(C(=N)N)cc1,Ki,[2],0.0076 nM
CC(=O)N[C@@H](CCCNC(=N)N)C(=O)N[C@@H](C)C(=O)N[C@@H](CCCNC(=N)N)C(=O)N[C@@H](CCCNC(=N)N)C(=O)N[C@@H](CCCNC(=N)N)C(=O)N[C@@H](CCCCN)C(=O)N[C@@H](CCCCN)C(=O)NC/C=C/CNC(=N)N (Ac-RARRRKK-X5),IC50,[3],71 µM
CC(C)(C)[C@H](NC(=O)CCCCNC(=N)N)C(=O)N[C@@H](CCCNC(=N)N)C(=O)NCc1ccc(C(=N)N)cc1,Ki,[4],1.26 nM
CC(=O)N[C@@H](CCCNC(=N)N)C(=O)NN(CCCNC(=N)N)CC(=O)N[C@@H](C)C(=O)N[C@@H](CCCNC(=N)N)C(=O)N[C@@H](CCCNC(=N)N)C(=O)N[C@@H](CCCNC(=N)N)C(=O)N[C@@H](CCCCN)C(=O)N[C@@H](CCCCN)C(=O)N[C@@H](CCCNC(=N)N)C(=O)N[C@H](C(N)=O)[C@@H](C)O,Ki,[5],0.012 µM
same,remaining at 24 h,[6],29%
same,half-life,[7],1.04 h
same,IC50,[3],> 1000 µM
CC(=O)N[C@@H](CCCNC(=N)N)C(=O)N[C@@H](C)C(=O)N[C@@H](CCCNC(=N)N)C(=O)N[C@@H](CCCNC(=N)N)C(=O)N[C@@H](CCCNC(=N)N)C(=O)N[C@@H](CCCCN)C(=O)N[C@@H](CCCCN)C(=O)N[C@@H](CCCNC(=N)N)C(=O)N[C@H](C(N)=O)[C@@H](C)O,Ki,[5],0.019 µM
same,Ki,[8],0.019 µM
same,remaining at 24 h,[6],5%
same,half-life,[7],1.7 h
same,IC50,[3],> 1000 µM
C/C(=N\NC(=N)N)c1ccc(OCCCOc2ccc(/C(C)=N/NC(=N)N)cc2)cc1,Ki,[9],1.43 µM
N=C(N)N/N=C/c1ccc(N2CCN(c3ccc(/C=N/NC(=N)N)cc3)CC2)cc1,Ki,[9],1.54 µM
CC(=O)NCC1CCN(Cc2cc(Oc3cnc(N4CCN(CCC(=O)O)CC4)nc3)nc(-c3cc(Cl)cc(Cl)c3)c2)CC1,pXC50,[10],8
same,inhibition in vivo at 10 mg/kg,[11],86%
same,inhibition in vivo at 10 mg/kg,[12],60%
CC(C)(C)[C@H](NC(=O)[C@H](CCCNC(=N)N)NC(=O)Cc1ccc(CNC(=N)N)cc1)C(=O)N[C@@H](CCCNC(=N)N)C(=O)NCc1ccc(C(=N)N)cc1,Ki,[13],0.052 µM
N=C(N)N/N=C/c1cccc(OCCCOc2cccc(/C=N/NC(=N)N)c2)c1,Ki,[9],1.7 µM
CC(C)(C)[C@H](NC(=O)[C@H](CCCNC(=N)N)NC(=O)Cc1ccc(CNC(=N)N)cc1)C(=O)N[C@@H](CCCNC(=N)N)C(=O)NCc1ccc(CN)cc1,IC50,[5],0.00953 µM
same,Ki,[5],0.00252 µM
same,pKa,[14],9.28
CC(C)[C@H](NC(=O)[C@H](CCCNC(=N)N)NC(=O)[C@H](CCCNC(=N)N)NC(=O)[C@H](CCCNC(=N)N)NC(=O)Cc1ccccc1)C(=O)N[C@@H](CCCNC(=N)N)C(=O)NCc1ccc(C(=N)N)cc1 (PhAc-RRRVR-{NH(4-amidinobenzyl)}),Ki,[4],0.0138 nM
CC(=O)N[C@@H](CCCNC(=N)N)C(=O)N[C@@H](C)C(=O)N[C@@H](CCCNC(=N)N)C(=O)N[C@@H](CCCNC(=N)N)C(=O)N[C@@H](CCCNC(=N)N)C(=O)N[C@@H](CCCCN)C(=O)N[C@@H](CCCCN)C(=O)NCN(CCCNC(N)N)N[C@H](C(N)=O)[C@@H](C)O (Ac-RARRRKK-X1),Ki,[5],0.028 µM
same,remaining at 24 h,[6],57%
same,half-life,[7],2.25 h
same,IC50,[3],314 µM
CC(=O)NCC1CCN(Cc2cc(Oc3ccc(N4CCN(CCS(C)(=O)=O)CC4)nc3)nc(-c3cc(Cl)cc(Cl)c3)c2)CC1,pXC50,[10],7.6
same,inhibition in vivo at 30 mg/kg,[15],41%
same,inhibition in vivo at 30 mg/kg,[16],45%
C/C(=N\NC(=N)N)c1ccc(NC(=O)CCCCC(=O)Nc2ccc(/C(C)=N/NC(=N)N)cc2)cc1,Ki,[9],1.21 µM
CC(C)(C)[C@H](NC(=O)[C@H](CCCNC(=N)N)NC(=O)Cc1ccccc1)C(=O)N[C@@H](CCCNC(=N)N)C(=O)NCc1ccc(C(=N)N)cc1,Ki,[2],0.17 nM
CC(=O)NCC1CCN(Cc2cc(Oc3ccc(N4CCN(CC(=O)O)CC4)nc3)nc(-c3cc(Cl)cc(Cl)c3)c2)CC1,pXC50,[10],6.9
same,inhibition in vivo at 10 mg/kg,[11],43%
same,inhibition in vivo at 10 mg/kg,[12],16%
CC(C)(C)[C@H](NC(=O)[C@H](CCCNC(=N)N)NC(=O)Cc1ccc(CNC(=N)N)cc1)C(=O)N[C@@H](CCCNC(=N)N)C(=O)NCc1ccc(N)nc1,IC50,[5],0.00298 µM
same,Ki,[5],0.0008 µM
same,pKa,[14],6.5
CN1CCCN(c2ncc(Oc3cc(CN4CCC(CC(=O)O)CC4)cc(-c4cc(Cl)cc(Cl)c4)n3)cn2)CC1,pXC50,[10],8.2
same,inhibition in vivo at 30 mg/kg,[15],34%
same,inhibition in vivo at 30 mg/kg,[16],36%
